According to patent US10654852B2, “Antibiotics and methods of using same” (THE BROAD INSTITUTE, INC., priority 2016, dated 2020):
Converted amounts (≈) assume the structure as drawn.

Tests used:
[1] = test system: Enterobacter aerogenes ATCC-13048; test: MIC (50% NHS); assay type: cell-based; conditions: Klebsiella aerogenes, ATCC13048; Enterobacter aerogenes ATCC-13048, 50% NHS
[2] = test system: Enterococcus faecium ATCC-700221; test: MIC (50% NHS); assay type: cell-based; conditions: ATCC700221; Enterococcus faecium ATCC-700221, 50% NHS
[3] = test system: Staphylococcus aureus NRS-384; test: MIC (50% NHS); assay type: cell-based; conditions: NRS384; Staphylococcus aureus NRS-384, 50% NHS
in vivo = test: in vivo; parameters: species or system mice; conditions: mouse, iv, 10 mg/kg; for half-life: T1/2
Experimental: Compounds were tested in a pharmacokinetic (“PK”) study to determine the T1/2 of test compounds in mice. The PK study was performed at an approved contract research organization. Each test compound was dissolved in a vehicle to make a test antibiotic composition. The vehicle may be, for example, a water or a 5% solutol in saline solution Administration to each mouse is performed via intravenous (IV) cannulation of the tail vein. Blood is collected over K2-EDTA anticoagulant from the submandibular or sapheneous vein at predetermined time points. Following collection, the blood samples are stored at −70° C. until analysis by LC-MS and comparison to a standard calibration curve results in the T1/2 for each compound. The blood concentration of test compounds was measured at various times following 10 mg/kg (mouse) intravenous (IV) administration of each tested compound. […] The T1/2 for compound 17 was 34.2 hours, for compound 23 was 22.0 hours, and for compound 24 was 22.5 hours.

[4] = Plasma protein binding (PPB) assay; assay type: in vitro ADME; conditions: % of free compound
Experimental: The activity profiles of compounds 17, 23, and 24 were assessed by various in vitro measurements. The minimum inhibitory concentration (MIC), MIC in the presence of normal human serum (NHS), microsome CLint, the % of free compounds following a plasma protein biding (PPB) assay, and the concentration of drug where the human-ether-à-go-go-related gene (hERG gene) channel block is halved (IC50(hERG)) were measured using standard in vitro protocols for compounds 17, 23, and 24. Unless otherwise indicated, measurements (e.g., microsomal clearance) were performed using a standard microsomal stability assay using LC/MS/MS techniques.

[5] = test system: Enterococcus faecalis ATCC-29212; test: MIC (50% NHS); assay type: cell-based; conditions: ATCC29212; Enterococcus faecalis ATCC-29212, 50% NHS
[6] = test system: Escherichia coli ATCC-BAA-2340; test: MIC (50% NHS); assay type: cell-based; conditions: ATCCBAA2340; Escherichia coli ATCC-BAA-2340, 50% NHS
[7] = test system: Escherichia coli ATCC 25922; test: Deep thigh infection model in neutropenic mice, CFU count; assay type: in vivo; conditions: 24 h P.I.; for colony forming units (CFU) compared with ciprofloxacin: 12.5 mg/kg compound vs 2.5 mg/kg ciprofloxacin, four doses; for colony forming units (CFU) as compared to the control: neutropenic CD-1 mice, thigh, 12.5 mg/kg IV four doses (1, 3, 5, 7 h P.I.)
Experimental: The in vivo activity to determine the CFU following administration of the test compounds was determined on a deep thigh infection caused by Escherichia coli ATCC 25922 in mice. The in vivo efficacy of various compounds was measured using a modified version of the deep-thigh infection model disclosed in Selbie, F R, et al., Br. J. Exp. Pathol. 33 (1952), 315-26 and Zuluaga, A F, et al., BMC Infect. Dis. 6 (2005) 55, each of which is hereby incorporated by reference. The efficacy was determined measuring the number of bacterial colony forming units (“CFU”) of mice injected with Escherichia coli […] on Day 0 following administration of the compounds.
Female CD-1 mice, aged 6-8-weeks, were purchased from local licensed supplier. The mice were allowed to acclimate for 3 days in the animal facility before experimentation began. The mice were then rendered neutropenic by intraperitoneal (“I.P.”) injection of 150 mg/kg cyclophosphamide on Day-4 (4 days prior to the injection of bacteria), and a maintaining dose of 100 mg/kg cyclophosphamide on Day-1 (1 day prior to the injection of bacteria). This regimen conditioned mice to neutropenia during the study. On the day of bacterial challenge (Day 0), Escherichia coli ATCC 29522 was injected into each mouse. Prior to injection, the bacterium was streaked out from −80° C. glycerol stock onto a tryptone soya agar (“TSA”) plate on Day-1. On the day of bacterial challenging (Day 0), single colonies on the agar plate were suspended in sterile saline and the final bacterial concentration was adjusted to approximately 1×10^6 CFU/ml based on turbidity readout of the bacterial solution from a Siemens MicroScan turbidity meter. The bacterial suspension was kept on ice temporarily prior to injection once the desired concentration was achieved.
On Day 0, 100 μl of bacterial suspension as prepared above was injected into the posterior quadriceps muscles of the right thigh. Antibiotic compositions comprising a tested compound in a vehicle were given to mice through tail vein injection at one hours, three hours, five hours and 7 hours post of infection (“P.I.”). The vehicle for each antibiotic composition is 5% (w/v) solutol HS15 in water. At 24 h P.I., all mice were euthanized. Infected thigh muscles for each tested mouse were excised and stored in ice-cold sterile saline for transfer to a Biosafety Level 2 (“BSL-2”) laboratory for subsequent CFU counting. Within one hour following sample collection, the muscles from mice tested with the same antibiotic composition were homogenized by a homogenizer (IKA T10 basic S25), serially diluted in sterile saline, and plated on TSA plates. The plates were incubated at 30° C. for approximately 18 h. The CFU were counted and calculated as CFU/mouse. The animal facility was AAALAC accredited, and the animal welfare in this experiment was in compliance of IACUC.
The number of colony forming units was independently measured in five different mice per composition administered. Each mouse was administered a mass of active compound per kg weight of the mouse four times a day. Mice were administered a composition without a test compound, compositions comprising 2.5 mg(ciprofloxacin)/kg, 12.5 mg(Compound 17)/kg, 12.5 mg(Compound 23)/kg, and 12.5 mg(Compound 24)/kg).

[8] = test system: Klebsiella pneumonia ATCC-700603; test: MIC (50% NHS); assay type: cell-based; conditions: Klebsiella pneumoniae, ATCC700603; Klebsiella pneumonia ATCC-700603, 50% NHS
[9] = test system: Escherichia coli NCTC-13476; test: MIC (50% NHS); assay type: cell-based; conditions: NCTC13476; Escherichia coli NCTC-13476, 50% NHS
[10] = test system: Staphylococcus aureus WX1-009; test: MIC (50% NHS); assay type: cell-based; conditions: WX1009; Staphylococcus aureus WX1-009, 50% NHS
[11] = test system: Staphylococcus aureus ATCC-29213; test: MIC (50% NHS); assay type: cell-based; conditions: ATCC29213; Staphylococcus aureus ATCC-29213, 50% NHS

SMILES	MIC [1] [µg/mL]	MIC [2] [µg/mL]	MIC [3] [µg/mL]	T1/2 (in vivo) [h]	clearance (in vivo) [mL/min/kg]	half-life (in vivo) [h]	fraction unbound [4]	MIC [5] [µg/mL]	MIC [6] [µg/mL]	colony forming units (CFU) compared with ciprofloxacin [7]	colony forming units (CFU) as compared to the control [7]	MIC [8] [µg/mL]	MIC [9] [µg/mL]	MIC [10] [µg/mL]	MIC [11] [µg/mL]
CNCc1ccc(-c2ccc(C3(O)C4CN(C)CC3CN(C(=O)Nc3cc(F)cc(F)c3)C4)nc2)c(C#N)c1 [Compound 17, (1R,5S,9r)-9-(5-(2-cyano-4-((methylamino)methyl)phenyl)pyridin-2-yl)-N-(3,5-difluorophenyl)-9-hydroxy-7-methyl-3,7-diazabicyclo[3.3.1]nonane-3-carboxamide]	0.45 (≈ 0.845 µM)	0.89 (≈ 1.67 µM)	0.22 (≈ 0.413 µM)	34.2	8.86	34	0.45	0.45 (≈ 0.845 µM)	0.22 (≈ 0.413 µM)	Comparable results to ciprofloxacin	decrease the amount of colony forming units	7.12 (≈ 13.4 µM)	1.78 (≈ 3.34 µM)	≤ 0.11	≤ 0.11
CN1CC2CN(C(=O)Nc3cc(F)cc(F)c3)CC(C1)C2(O)c1ccc(-c2ccc(CN)cc2C#N)cn1 [Compound 24, (1R,5S,9r)-9-(5-(4-(aminomethyl)-2-cyanophenyl)pyridin-2-yl)-N-(3,5-difluorophenyl)-9-hydroxy-7-methyl-3,7-diazabicyclo[3.3.1]nonane-3-carboxamide]	2 (≈ 3.86 µM)	4 (≈ 7.71 µM)	0.5 (≈ 0.964 µM)		13.9	22.5	0.38	1 (≈ 1.93 µM)	0.25 (≈ 0.482 µM)		decrease the amount of colony forming units	16 (≈ 30.9 µM)	4 (≈ 7.71 µM)	0.25 (≈ 0.482 µM)	0.25 (≈ 0.482 µM)
CN1CC2CN(C(=O)Nc3cc(F)cc(F)c3)CC(C1)C2(O)c1ccc(-c2ccc(CN)cc2C#N)cc1 [Compound 23, (1R,5S,9r)-9-(4′-(aminomethyl)-2′-cyano-[1,1′-biphenyl]-4-yl)-N-(3,5-difluorophenyl)-9-hydroxy-7-methyl-3,7-diazabicyclo[3.3.1]nonane-3-carboxamide]	1 (≈ 1.93 µM)	1 (≈ 1.93 µM)	0.13 (≈ 0.251 µM)		9.78	22	0.27	0.5 (≈ 0.966 µM)	0.25 (≈ 0.483 µM)	Comparable results to ciprofloxacin	decrease the amount of colony forming units	8 (≈ 15.5 µM)	2 (≈ 3.86 µM)	≤ 0.06	0.13 (≈ 0.251 µM)
